The text below walks through data of US20050222168A1, “Beta-carboline derived guanidine alkaloids, tiruchenduramine” (Council of Scientific and Industrial Research, priority 2004, published 2005).

The subject of this experiment is α-glucosidase. The experiment in a line: in-vitro assay for anti-diabetic activity (α-glucosidase inhibition). The experiment is classed as biochemical. The following applies: amount printed without volume or percent inhibition. The text has this:
The structure of compound 1 was established by the study of ^1H-^1H—COSY, HMQC, HMBC and NOESY spectral data (Table 1) as Formula 1.

In the case of `N=C1NCC(CCNC(=O)c2cc3c(cn2)[nH]c2ccccc23)N1` (stereo not shown) [Tiruchenduramine, tiruchenduramine], the “amount at which it inhibits α-glucosidase” value was found to be 788 µg.
